Reference: patent publication US12472226B2, “Cell-permeable peptide” (priority 2019, dated 2025)
Non-standard residues stand in square brackets, D forms with d. Primed or numbered codes have the meaning given here. No end group written: not given here. *: point of attachment. FITC = O=C1OC2(c3ccc(O)cc3Oc3cc(O)ccc32)c2ccc(NC(=S)*)cc21; PEG4′ = not defined here; PEG5′ = not defined here; Ahx = NCCCCCC(=O)O

What was measured:
HT-1080 cells tumor = assay: Delivery test on anticancer agent in tumor-bearing mice; type: in vivo, BALB/c nude mouse
Procedure: HT-1080 cells (1×10^7 cells/200 μL) were subcutaneously implanted into the back of 5 week-old BALB/c nude mouse (CHARLES RIVER LABORATORIES JAPAN, INC.). A tumor after the implantation was confirmed to reach 30 to 60 mm^3, and then they were subjected to the following tests.
Example 2 was dissolved in the sterile water and adjusted to be 200 μg/200 μL by the addition of 2-time concentrated α-MEM (not containing glutamine or an antibiotic). It was intraperitoneally administered to tumor-bearing mice at 10 mg/kg every 3 days. In the control administration group, 200 μL of 1-time concentrated α-MEM was intraperitoneally administered to tumor-bearing mice every 3 days. The mice were weighed on DRETEC weighing scale (DRETEC CO., Ltd., Japan) and the tumor size (estimation volume (shortest diameter×longer diameter×height×pi/6 mm^3)) was measured with a vernier caliper (maximum: 150 mm, minimum: 0.05 mm) (MITUTOYO, Japan) every 3 days.
Example 3 and Comparative Example 4 (Dox) were treated to be at 5 or 1.2 mg/kg, respectively in the same manner as that of Example 2, and administered to the tumor-bearing mice. The tumor size was measured by the same procedure as above.
FIG. 7 is a graph illustrating transitions of tumor size in the control (N=2), Comparative Example 4(N=2) and Example 3 administration group (N=2). The vertical axis represents the average value of tumor size±standard deviation (SD) and the horizontal axis represents the days after administration. […] The tumor size day 24 grew to about 2,000 mm^3 in the control and Comparative Example 4 administration group. […] That is, the tumors largely shrank due to not only anticancer effect of the peptide itself but also the effect of the anticancer agent. The peptides of the present invention specifically act on the target cells compared with the single administration of the anticancer agent and have high toxicity against the cancer cells.

HT-1080 cells [1] = assay: Test of inducing cell-death in vitro (Calcein-AM/PI dead cell rate); type: cell-based, human; conditions: 9th day
Text: Human fibrosarcoma-derived HT-1080 cells (HT-1080 cells, JCRB cell bank) were used as cancer cells in the test for monitoring changes in mitochondrial membrane potential. HT-1080 cells, human osteosarcoma cell line Hos cells (Hos cells, JCRB cell bank), human histiocytic lymphoma/macrophage U937 cells (U937 cells, JCRB cell bank), human myeloid leukemia HL-60 cells (HL-60 cells, JCRB cell bank), acute monocytic leukemia THP-1 cells (THP-1 cells, JCRB cell bank), human alveolar basal epithelial adenocarcinoma cell A549 cells (A549 cells, Cell Resource Center for Biomedical Research, Institute of Development, Aging and Cancer, Tohoku University), human pancreatic carcinoma cells (MIA Paca 2 cells, Cell Resource Center for Biomedical Research, Institute of Development, Aging and Cancer, Tohoku University) and well differentiated human liver carcinoma-derived cell line HuH7 cells (HuH7 cells, Cell Resource Center for Biomedical Research, Institute of Development, Aging and Cancer, Tohoku University) were used as cancer cells in an in vitro cell-death induction test of cancer cells and a nuclear transport test of Example 2. Normal human gingival fibroblast cells Gin-1 (Gin-1 cells, DS Pharma Biomedical) were used as a control. The above-described cells were each inoculated into a 96-well culture plate (Falcon) at 5,000 cells/[…] and subjected to the following tests.
The peptide of SEQ ID NO: 1 labeled with FITC (Example 2) was used for the test of inducing cell-death in vitro in cancer cells. It was prepared the test example to which 100 μL of Example 2 and further 10% FBS were added and cultured for 9 days under conditions of 200 μL of serum-supplemented medium (Alpha modification of Eagle's MEM (α-MEM) (Thermo Fisher Scientific)+10% FBS). Furthermore, it was also produced the test example that was cultured for 21 days with the whole amount of Example 2-supplemented medium replaced every 7 days. As a control, the cells were cultured in a serum-supplemented medium (α-MEM+10% FBS) without addition and were used. A supernatant was removed after the completion of the culture. The cells were washed once with PBS and stained in PBS to which a fluorescent dye for living cell staining Calcein-AM (DOJINDO LABORATORIES) (final concentration: 0.1 μg/mL) and a fluorescent dye for dead cell staining Propidium Iodide (PI) (DOJINDO LABORATORIES) (final concentration: 0.3 μg/mL) were added, at 37° C. in a 5% CO2 cell incubator for 30 minutes. The living cells and dead cells were separately stained with Calcein-AM and PI, respectively and imaged with the confocal laser scanning microscope LSM800. Next, the dead cell rate relative to the number of total cells was analyzed using ImageJ.
The results are represented by the average value of the dead cell rate (the number red cells stained with IP/the number of total cells×100(%))±standard deviation (SD). In FIG. 2A, the vertical axis represents the rate of cell death when each cell was cultured with Example 2 (50 μg/mL) for 9 days and the horizontal axis represents various types of cells. The increase in the dead cell rate of the Gin-1 cells was not observed.
The concentrations of Examples 2 and 4 to 6 were adjusted to 12.5, 25, 50 and 100 μg/mL, respectively and then administrated to the HT-1080 cells for 9 days tested by the same method as in Test Example 2A. The cell staining and subsequent analyses of the dead cell rate relative to the number of total cells were performed in the same manner as Test Example 2A.

Gin-1 cells = assay: Test of monitoring changes in mitochondrial membrane potential (JC-1 apoptosis rate), normal cells; type: cell-based, human; conditions: 50 μg/mL
Procedure: (§1) Human fibrosarcoma-derived HT-1080 cells (HT-1080 cells, JCRB cell bank) were used as cancer cells in the test for monitoring changes in mitochondrial membrane potential. […]
(§2) The synthetic peptide of Example 1 or Comparative Examples 1 to 3 was individually added to the HT-1080 cells, and the cells were cultured in a serum-supplemented medium (α-MEM+10% FBS). […] Further, the cells were washed once with PBS followed by the addition of 100 μL of PBS, scanned with a confocal laser scanning microscope LSM800 (Zeiss) and then analyzed with ImageJ. […]

HT-1080 cells [2] = assay: Test of monitoring changes in mitochondrial membrane potential (JC-1 apoptosis rate); type: cell-based, human; conditions: 7 days, Example 1 at 25, 50 and 100 μg/mL, Comparative Examples at 50 and 100 μg/mL
Procedure: as §1, §2

COc1cccc2c1C(=O)c1c(O)c3c(c(O)c1C2=O)C[C@@](O)(C(=O)CO)C[C@@H]3O[C@H]1C[C@H](N)[C@H](O)[C@H](C)O1 [Comparative Example 4, Doxorubicin, reference compound]
tumor size (HT-1080 cells tumor; 1.2 mg/kg, day 24, N=2): about 2,000 mm^3

Example 3 ({doxorubicin-PEG5′-DBCO‑azide-PEG4′}-KDNRGNLLQCVCTGNGRGEWKC; cysteine pairing not given here)
suppression of tumor proliferation compared with the control and Comparative Example 4 administration group (HT-1080 cells tumor; 5 mg/kg, between days 18 and 24, N=2): significant difference at the level of 1% | suppression effect on tumor (HT-1080 cells tumor; 5 mg/kg, to the day 24): suppression effect was confirmed

Example 5: peptide of SEQ ID NO: 2 labeled with FITC via an Ahx linker at the N-terminus ({FITC}-[Ahx]KDNRGNLLQCICTGNGRGEWKC; cysteine pairing not given here)
dead cell rate (HT-1080 cells [1]; 50 or 100 μg/mL): ≥ 50%

Example 6: peptide of SEQ ID NO: 6 labeled with FITC via an Ahx linker at the N-terminus ({FITC}-[Ahx]KHGLYNLKQCKMSLNGQRGECWC; cysteine pairing not given here)
dead cell rate (HT-1080 cells [1]; 12.5 μg/mL substantially same as 100 μg/mL): about 35%

KDNRGNLLQCVCTGNGRGEWKC (This is derived from a part of CD ligand.; BINDING (3)..(6); BINDING (13)..(17)) [Example 1]
increase in apoptosis rate (Gin-1 cells): not observed | increase in apoptosis rate (number of green cell dyed with JC1/number of total cells) (HT-1080 cells [2]): increase in apoptosis rate of the HT-1080 cells was confirmed
